Source: PubChem BioAssay AID248 (DTP/NCI, 2004)
Where “and” joins values, the source holds several entries; their conditions need not be identical. Equal entries are not always repeated. Toxic doses and inconclusive results are not listed. No stated cut-off is given here; in the data, active means T/C of 150% or more; inactive means T/C below 125%.

Test system: L1210 leukemia ip in BDF1 mice, survival T/C
Assay: NCI In Vivo Anticancer Drug Screen. Data for tumor model L1210 Leukemia (intraperitoneal) in B6D2F1 (BDF1) mice
Details: endpoint: mean survival time, higher = longer survival
In short: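 Survival endpoint. Drug-treated group vs vehicle group, expressed as T divided by C. Tumor passaged by transplantation.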

[1] = dose: 100.0 mg/kg/injection, schedule: Q01DX001 (ip), vehicle: saline
[2] = dose: 6.25 mg/kg/injection, schedule: Q01DX009 (ip), vehicle: saline with Tween-80
[3] = dose: 200.0 mg/kg/injection, schedule: Q01DX001 (ip), vehicle: saline
[4] = dose: 400.0 mg/kg/injection, schedule: Q01DX001 (ip), vehicle: saline

Measured: T/C

CCCCCCCCCCCCCCCCCCNc1nc(SC)ncc1C(=O)OCC
inactive: dose: 25.0 mg/kg/injection, schedule: Q01DX001 (ip), vehicle: saline 103 % of control | dose: 50.0 mg/kg/injection, schedule: Q01DX001 (ip), vehicle: saline 102 % of control | [1] 101 % of control and 102 % of control

OCC1OC(n2ccc3c2ncn2nnnc32)C(O)C1O (stereo not given)
inactive: dose: 12.5 mg/kg/injection, schedule: Q01DX009 (ip), vehicle: saline 91 % of control | dose: 12.5 mg/kg/injection, schedule: Q04DX003 (ip), vehicle: saline 102 % of control | dose: 25.0 mg/kg/injection, schedule: Q01DX009 (ip), vehicle: saline 102 % of control | dose: 25.0 mg/kg/injection, schedule: Q04DX003 (ip), vehicle: saline 107 % of control | dose: 50.0 mg/kg/injection, schedule: Q04DX003 (ip), vehicle: saline 105 % of control

COc1ccccc1/C=N\NC(=S)Nc1ccc(F)cc1
inactive: dose: 60.0 mg/kg/injection, schedule: Q01DX Z (oral), vehicle: methylcellulose (MC) 106 % of control | dose: 120.0 mg/kg/injection, schedule: Q01DX Z (oral), vehicle: methylcellulose (MC) 90 % of control | dose: 240.0 mg/kg/injection, schedule: Q01DX Z (ip), vehicle: methylcellulose (MC) 92 % of control | dose: 240.0 mg/kg/injection, schedule: Q01DX Z (oral), vehicle: methylcellulose (MC) 96 % of control | dose: 480.0 mg/kg/injection, schedule: Q01DX Z (ip), vehicle: methylcellulose (MC) 91 % of control | dose: 480.0 mg/kg/injection, schedule: Q01DX Z (oral), vehicle: methylcellulose (MC) 93 % of control

O=c1cc[nH]c2n[nH]nc12
inactive: dose: 100.0 mg/kg/injection, schedule: Q01DX001 (ip), vehicle: Klucel (hydroxypropylcellulose) (HPC) 94 % of control | dose: 200.0 mg/kg/injection, schedule: Q01DX001 (ip), vehicle: Klucel (hydroxypropylcellulose) (HPC) 94 % of control | dose: 400.0 mg/kg/injection, schedule: Q01DX001 (ip), vehicle: Klucel (hydroxypropylcellulose) (HPC) 96 % of control

Cc1cccc(C)c1NC(=O)NC/C(Br)=C/Br
inactive: dose: 75.0 mg/kg/injection, schedule: Q01DX009 (ip), vehicle: Klucel (hydroxypropylcellulose) (HPC) 100 % of control | dose: 150.0 mg/kg/injection, schedule: Q01DX009 (ip), vehicle: Klucel (hydroxypropylcellulose) (HPC) 100 % of control | dose: 300.0 mg/kg/injection, schedule: Q01DX009 (ip), vehicle: Klucel (hydroxypropylcellulose) (HPC) 104 % of control

CCN=C(c1ccc(NC(=O)c2ccc(C(=O)Nc3ccc(C(=NCC)N(CC)C(=O)NCCCCl)cc3)cc2)cc1)N(CC)C(=O)NCCCCl
inactive: dose: 0.5 mg/kg/injection, schedule: Q01DX015 (ip), vehicle: methylcellulose (MC) 100 % of control | dose: 1.0 mg/kg/injection, schedule: Q01DX015 (ip), vehicle: methylcellulose (MC) 102 % of control | dose: 2.0 mg/kg/injection, schedule: Q01DX015 (ip), vehicle: methylcellulose (MC) 111 % of control

CCOCCOCCOC(C)Oc1ccc(C(C)C)cc1 (stereo not given)
inactive: dose: 100.0 mg/kg/injection, schedule: Q04DX002 (ip), vehicle: saline 93 % of control | dose: 200.0 mg/kg/injection, schedule: Q04DX002 (ip), vehicle: saline 104 % of control | dose: 400.0 mg/kg/injection, schedule: Q04DX002 (ip), vehicle: saline 101 % of control

NC1=NC(=O)NC1(c1ccccc1)c1ccccc1
inactive: dose: 50.0 mg/kg/injection, schedule: Q01DX001 (ip), vehicle: carboxymethylcellulose (CMC) 94 % of control | dose: 100.0 mg/kg/injection, schedule: Q01DX001 (ip), vehicle: carboxymethylcellulose (CMC) 100 % of control | dose: 200.0 mg/kg/injection, schedule: Q01DX001 (ip), vehicle: carboxymethylcellulose (CMC) 89 % of control | dose: 400.0 mg/kg/injection, schedule: Q01DX001 (ip), vehicle: carboxymethylcellulose (CMC) 116 % of control

O=C(OCCCOC(=O)c1cccc([N+](=O)[O-])c1)c1cccc([N+](=O)[O-])c1
inactive: dose: 100.0 mg/kg/injection, schedule: Q01DX001 (ip), vehicle: other 101 % of control | dose: 200.0 mg/kg/injection, schedule: Q01DX001 (ip), vehicle: other 98 % of control | dose: 400.0 mg/kg/injection, schedule: Q01DX001 (ip), vehicle: other 102 % of control

CC(O)C(O)C(O)C(/C=N\NC(N)=S)=N/NC(N)=S (stereo not given)
inactive: dose: 100.0 mg/kg/injection, schedule: Q01DX009 (ip), vehicle: saline 95 % of control | dose: 100.0 mg/kg/injection, schedule: Q04DX003 (ip), vehicle: saline 104 % of control | dose: 200.0 mg/kg/injection, schedule: Q01DX009 (ip), vehicle: saline 89 % of control | dose: 200.0 mg/kg/injection, schedule: Q04DX003 (ip), vehicle: saline 105 % of control | dose: 400.0 mg/kg/injection, schedule: Q01DX009 (ip), vehicle: saline 90 % of control | dose: 400.0 mg/kg/injection, schedule: Q04DX003 (ip), vehicle: saline 94 % of control

COC(=O)C12Oc3ccc(-c4ccc5c(c4O)C(O)=C4C(=O)CC(C)C(O)C4(C(=O)OC)O5)c(O)c3C(O)=C1C(=O)CC(C)C2O (stereo not given)
inactive: dose: 1.56 mg/kg/injection, schedule: Q01DX009 (ip), vehicle: saline with Tween-80 104 % of control | dose: 3.13 mg/kg/injection, schedule: Q01DX009 (ip), vehicle: saline with Tween-80 100 % of control | [2] 105 % of control and 91 % of control | dose: 12.5 mg/kg/injection, schedule: Q04DX003 (ip), vehicle: saline with Tween-80 98 % of control | dose: 25.0 mg/kg/injection, schedule: Q04DX003 (ip), vehicle: saline with Tween-80 110 % of control | dose: 50.0 mg/kg/injection, schedule: Q04DX003 (ip), vehicle: saline with Tween-80 104 % of control

NC(N)=N/N=C/N/N=C/c1ccccc1O
inactive: dose: 60.0 mg/kg/injection, schedule: Q01DX Z (oral), vehicle: carboxymethylcellulose (CMC) 91 % of control | dose: 120.0 mg/kg/injection, schedule: Q01DX Z (oral), vehicle: carboxymethylcellulose (CMC) 91 % of control | dose: 240.0 mg/kg/injection, schedule: Q01DX Z (oral), vehicle: carboxymethylcellulose (CMC) 100 % of control | dose: 480.0 mg/kg/injection, schedule: Q01DX Z (oral), vehicle: carboxymethylcellulose (CMC) 100 % of control

O=S1(=O)CCc2ccccc21
inactive: [1] 97 % of control | [3] 111 % of control | [4] 104 % of control

O=C(COc1ccccc1)c1ccccc1
inactive: dose: 12.5 mg/kg/injection, schedule: Q04DX002 (ip), vehicle: Klucel (hydroxypropylcellulose) (HPC) 93 % of control | dose: 25.0 mg/kg/injection, schedule: Q04DX002 (ip), vehicle: Klucel (hydroxypropylcellulose) (HPC) 104 % of control | dose: 50.0 mg/kg/injection, schedule: Q04DX002 (ip), vehicle: Klucel (hydroxypropylcellulose) (HPC) 96 % of control | dose: 200.0 mg/kg/injection, schedule: Q04DX002 (ip), vehicle: Klucel (hydroxypropylcellulose) (HPC) 95 % of control

O=C(Nc1ccc(S(=O)(=O)NC2CCCCC2)cc1)OC1CCCCCCC1
inactive: [1] 89 % of control | [3] 94 % of control | [4] 96 % of control

Cc1cc(N(CCOS(C)(=O)=O)CCOS(C)(=O)=O)ccc1C=Nc1ccc(C(=O)O)c(O)c1
inactive: dose: 4.0 mg/kg/injection, schedule: Q01DX009 (ip), vehicle: saline with Tween-80 111 % of control | dose: 6.0 mg/kg/injection, schedule: Q01DX009 (ip), vehicle: saline with Tween-80 119 % of control

O=C(Nc1ccc(CC2=NCCN2)cc1)c1ccc(C(=O)Nc2ccc(CC3=NCCN3)cc2)cc1
inactive: dose: 0.5 mg/kg/injection, schedule: Q01DX Z (ip), vehicle: saline 102 % of control | dose: 1.0 mg/kg/injection, schedule: Q01DX Z (ip), vehicle: saline 104 % of control | dose: 2.0 mg/kg/injection, schedule: Q01DX Z (ip), vehicle: saline 91 % of control | dose: 4.0 mg/kg/injection, schedule: Q01DX Z (ip), vehicle: saline 104 % of control | dose: 8.0 mg/kg/injection, schedule: Q01DX Z (ip), vehicle: saline 104 % of control

CC(C)CCOc1ccc(N)c([N+](=O)[O-])c1
inactive: [2] 105 % of control | dose: 12.5 mg/kg/injection, schedule: Q01DX009 (ip), vehicle: saline with Tween-80 100 % of control | dose: 25.0 mg/kg/injection, schedule: Q01DX009 (ip), vehicle: saline with Tween-80 103 % of control | dose: 50.0 mg/kg/injection, schedule: Q01DX009 (ip), vehicle: saline with Tween-80 94 % of control | dose: 100.0 mg/kg/injection, schedule: Q04DX003 (ip), vehicle: saline with Tween-80 97 % of control | dose: 200.0 mg/kg/injection, schedule: Q04DX003 (ip), vehicle: saline with Tween-80 100 % of control

CCN(CC)S(=O)(=O)NC1C(=O)N(c2ccccc2)N(C)C1C (stereo not given)
inactive: dose: 100.0 mg/kg/injection, schedule: Q04DX002 (ip), vehicle: saline with Tween-80 104 % of control | dose: 200.0 mg/kg/injection, schedule: Q04DX002 (ip), vehicle: saline with Tween-80 101 % of control | dose: 400.0 mg/kg/injection, schedule: Q04DX002 (ip), vehicle: saline with Tween-80 104 % of control
